Legend:
[1] = biological target: panel of 39 kinases (tyrosine, serine/threonine and lipid kinases); assay: Broad panel of 39 kinases at 10 μM; assay type: biochemical
Text: Numerous hits were designed with nanomolar potency against EGFR and PIK3CA. […] A structure-activity relationship was shown for these agents against both of the biochemical targets.

[2] = test system: phosphorylation of AKT in HCT-116 tumors; assay: In vivo pharmacodynamics in subcutaneous HCT-116 tumors, pAKT; details: intraperitoneal 100 mg/kg
Text: (§1) However, additional synthesis of MOL-162 is needed to allow a full pharmacodynamic time course study to be carried out to determine the maximal degree of target inhibition of both targets after single and repeated daily dosing.

EGFR = EGFR (Homo sapiens, UniProt P00533); assay: Z'-LYTE biochemical kinase assay, EGFR; details: read-out: potency against EGFR
Chain of EGFR (P00533 25-1210): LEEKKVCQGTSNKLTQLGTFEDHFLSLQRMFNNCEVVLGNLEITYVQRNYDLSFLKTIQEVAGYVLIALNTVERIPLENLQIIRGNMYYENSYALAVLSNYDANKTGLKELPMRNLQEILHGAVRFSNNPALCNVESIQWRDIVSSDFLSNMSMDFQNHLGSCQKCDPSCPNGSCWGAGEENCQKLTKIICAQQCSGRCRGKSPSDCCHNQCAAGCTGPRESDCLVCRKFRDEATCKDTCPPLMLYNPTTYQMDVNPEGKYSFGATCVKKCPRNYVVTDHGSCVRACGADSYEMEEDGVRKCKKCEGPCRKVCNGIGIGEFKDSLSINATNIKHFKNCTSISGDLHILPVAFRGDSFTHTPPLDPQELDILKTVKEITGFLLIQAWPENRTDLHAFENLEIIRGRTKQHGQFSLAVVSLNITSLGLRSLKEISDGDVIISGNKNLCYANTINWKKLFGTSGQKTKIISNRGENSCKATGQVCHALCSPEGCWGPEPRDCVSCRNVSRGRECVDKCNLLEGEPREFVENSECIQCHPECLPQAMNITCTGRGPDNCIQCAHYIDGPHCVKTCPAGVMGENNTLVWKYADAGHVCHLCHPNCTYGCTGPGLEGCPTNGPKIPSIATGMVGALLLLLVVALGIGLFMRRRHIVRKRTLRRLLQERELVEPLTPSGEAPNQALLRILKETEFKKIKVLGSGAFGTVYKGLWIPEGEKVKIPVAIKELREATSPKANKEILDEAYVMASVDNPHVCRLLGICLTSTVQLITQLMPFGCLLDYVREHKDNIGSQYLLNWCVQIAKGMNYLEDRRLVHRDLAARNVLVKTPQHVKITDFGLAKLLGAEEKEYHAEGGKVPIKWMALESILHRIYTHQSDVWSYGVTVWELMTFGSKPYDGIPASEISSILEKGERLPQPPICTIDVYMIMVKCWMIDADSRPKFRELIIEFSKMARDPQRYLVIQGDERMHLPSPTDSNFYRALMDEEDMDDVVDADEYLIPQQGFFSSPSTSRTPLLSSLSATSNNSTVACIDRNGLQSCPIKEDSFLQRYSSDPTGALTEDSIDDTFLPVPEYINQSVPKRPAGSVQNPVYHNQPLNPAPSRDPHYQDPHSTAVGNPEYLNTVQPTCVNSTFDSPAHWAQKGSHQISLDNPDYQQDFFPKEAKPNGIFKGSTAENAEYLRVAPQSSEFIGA
Procedure: Various compounds were tested for their ability to inhibit EGFR and PIK3CA. The assays determining inhibitions are given in Example 2 Assays-Z′-LYTE® and ADAPTA.
Assays: The Z′-LYTE® biochemical assay employs a fluorescence-based, coupled-enzyme format and is based on the differential sensitivity of phosphorylated and non-phosphorylated peptides to proteolytic cleavage (FIG. 6). The peptide substrate is labeled with two fluorophores—one at each end— that make up a FRET pair. In the primary reaction, the kinase transfers the gamma-phosphate of ATP to a single tyrosine, serine or threonine residue in a synthetic FRET-peptide. […] A ratiometric method, which calculates the ratio (the Emission Ratio) of donor emission to acceptor emission after excitation of the donor fluorophore at 400 nm, is used to quantitate reaction progress.
A significant benefit of this ratiometric method for quantitating reaction progress is the elimination of well-to-well variations in FRET-peptide concentration and signal intensities. […]
Both cleaved and uncleaved FRET-peptides contribute to the fluorescence signals and therefore to the Emission Ratio. The extent of phosphorylation of the FRET-peptide can be calculated from the Emission Ratio. […]
Bar-coded Corning, low volume NBS, black 384-well plate (Corning Cat. 4514) 1. […] Read on fluorescence plate reader and analyze the data.

[3] = test system: phosphorylation of EGFR in HCT-116 tumors; assay: In vivo pharmacodynamics in subcutaneous HCT-116 tumors, pEGFR; details: intraperitoneal 100 mg/kg
Text: as §1

[4] = Tolerability in xenograft-bearing mice; assay type: in vivo; details: oral, daily for 10 days at 20 and 100 mg/kg
Text: (§2) FIGS. 8A, 8B, 8C, 8D, and 8E show in vivo efficacy of MOL-201 against, HCT-116, A431, COL-205, SK-MEL5 and MDA-MB-468 xenografts. […] The method is outlined in Example 2—Xenograft Studies.
(§3) Female 6-7 week old NCR nude mice (CrTac:NCr-Foxn1nu from Taconic), 6-7 weeks old, were implanted subcutaneously with 1×10^6 to 1×10^7 cells in a 1:1 serum-free media/Matrigel® mixture into the region of the right axilla. Mice were randomized into treatment groups and treatments initiated when tumors reached 100 to 200 mg. MTX-201 was administered daily for 10 days by oral gavage as a clear yellow solution in 5% DMSO/95% PEG300, based upon individual animal body weight (0.2 ml/20 g). Subcutaneous tumor volume and body weights were measured two to three times a week. Tumor volumes were calculated by measuring two perpendicular diameters with calipers and using the formula: tumor volume=(length×width2)/2. Mice were held following cessation of treatment until tumor burdens reached −1000 mg, to allow for calculation of tumor growth delay. Percent treated/control (% T/C) was calculated by dividing the median treated tumor weight by the median control tumor weight and multiplying by 100 on the last day of treatment. Tumor growth delay (T-C) was calculated by subtracting the median time to reach evaluation size (750 mg) of the treated group by the median time to evaluation size of the control group. […]

NCI-60 cell panel = assay: NCI-60 COMPARE panel, one-dose % growth; assay type: cell-based, human; details: 10 μM
Procedure: The method is outlined in Example 2—NCI COMPARE Panel.
The human tumor cell lines of the cancer screening panel are grown in RPMI 1640 medium containing 5% fetal bovine serum and 2 mM L-glutamine. For a typical screening experiment, cells are inoculated into 96 well microtiter plates in 100 μL at plating densities ranging from 5,000 to 40,000 cells/well depending on the doubling time of individual cell lines. After cell inoculation, the microtiter plates are incubated at 37° C., 5% CO2, 95% air and 100% relative humidity for 24 h prior to addition of experimental drugs. […]
Following drug addition, the plates are incubated for an additional 48 h at 37° C., 5% CO2, 95% air, and 100% relative humidity. […] Bound stain is subsequently solubilized with 10 mM trizma base, and the absorbance is read on an automated plate reader at a wavelength of 515 nm. […] Using the seven absorbance measurements [time zero, (Tz), control growth, (C), and test growth in the presence of drug at the five concentration levels (Ti)], the percentage growth is calculated at each of the drug concentrations levels. Percentage growth inhibition is calculated as: [(Ti−Tz)/(C−Tz)]×100 for concentrations for which Ti>/=Tz [(Ti−Tz)/Tz]×100 for concentrations for which Ti<Tz. […]

SK-MEL5 xenografts = assay: Xenograft study, SK-MEL5; assay type: in vivo, NCR nude mice; details: higher dose (100 mg/kg), daily for 10 days, oral
Text: as §2, §3

A431 xenografts = assay: Xenograft study, A431; assay type: in vivo, NCR nude mice; details: higher dose (100 mg/kg), daily for 10 days, oral
Text: as §2, §3

HCT-116 xenografts = assay: Xenograft study, HCT-116; assay type: in vivo, NCR nude mice; details: higher dose (100 mg/kg), daily for 10 days, oral
Text: as §2, §3

COL-205 xenografts = assay: Xenograft study, COL-205; assay type: in vivo, NCR nude mice; details: higher dose (100 mg/kg), daily for 10 days, oral
Text: as §2, §3

[5] = test system: HCT-116, A431, COL-205, SK-MEL5 and MDA-MB-468 xenografts; assay: Xenograft studies, model not stated for the lower dose; assay type: in vivo, NCR nude mice; details: lower dose of 20 mg/kg
Text: as §2, §3

kinase profile (in words) [1] | IC50 (EGFR) | SMILES | inhibition of pAKT in tumors [2] | inhibition of pEGFR in tumors [3] | tolerability [4] | % growth in NCI-60 panel (in words) (NCI-60 cell panel) | anti-tumor activity (T/C and T-C) (SK-MEL5 xenografts) | anti-tumor activity (T/C and T-C) (A431 xenografts) | anti-tumor activity (T/C and T-C) (HCT-116 xenografts) | anti-tumor activity (T/C and T-C) (COL-205 xenografts) | anti-tumor activity [5]
clean kinase profile | 349 nM | COc1ccc(Nc2ncnc3ccc(-c4cncc(NS(C)(=O)=O)c4)cc23)cc1Cl [MOL-153, N-(5-(4-((3-chloro-4-methoxyphenyl)amino)quinazolin-6-yl)pyridin-3-yl)methanesulfonamide] | inhibition of pAKT | not detected |  |  |  |  |  |  | 
 |  | CS(=O)(=O)Nc1cc(-c2ccc3ncnc(Nc4cccc(Cl)c4)c3c2)cnc1Cl [MOL-201, N-(2-chloro-5-(4-((3-chlorophenyl)amino)quinazolin-6-yl)pyridin-3-yl)methanesulfonamide] |  |  | well tolerated by mice with no clinical observations of toxicity | broad cell kill | Anti-tumor activity observed | Anti-tumor activity observed | Anti-tumor activity observed | Anti-tumor activity observed | elicited anti-tumor activity

— patent US11607414B2, “Small molecule inhibitors of EGFR and PI3K” (The Regents of the University of Michigan, priority 2014, dated 2023)
